Experimental findings from patent US20250353891A1 (MEDIMMUNE LIMITED, priority 2022, published 2025) are described below.

Broadly, the EC50 is the concentration that produces a half-maximal response.

In assay [1] the target is human glucagon receptor (hGCGR) (Homo sapiens, UniProt P47871). Briefly: cAMP production (HTRF) in CHO cells expressing hGCGR. Also on record: expressed in transfected cells. The class given is cell-based. The settings on record: cAMP in CHO hGCGR cells, geometric mean, read-out: hGluc-R EC50. Summed up:
(§1)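 Read-out: HTRF cAMP (anti-cAMP cryptate donor, cAMP-d2 acceptor in conjugate/lysis buffer), converted to % Delta F and fitted by 4-parameter logistic for EC50. Cell densities were 1×10^5 cells/mL (hGLP-1R) or 2×10^5 cells/mL (hGCGR). Stimulation lasted 30 min at room temperature.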
Background: Changes in cAMP serve as a functional read-out for many G protein-coupled receptors.

Assay [2] addresses human GLP-1 receptor (hGLP-1R) (Homo sapiens, UniProt P43220). Briefly: cAMP production (HTRF) in CHO cells expressing hGLP-1R. The arrangement: expressed in transfected cells. The settings on record: for EC50: cAMP in CHO hGLP-1R cells, geometric mean, read-out: hGLP-1R EC50; for % Relative Potency Ratio: % GLP-1R activity relative to GLP-1 / % GlucR activity relative to glucagon. Format: cell-based. Summed up:
as §1

Where [3] appears, read: Table 6, peptides modified at position 17.
The mark [4] stands for this setting: Table 7, peptides modified at position 20.

Read-outs that look alike come from different tables or passages of the source. Starred links: 1 amine or outer side, 2 acyl side, 3 side chain; linkers in the order of their positions; H or OH if unused. Non-standard residues stand in square brackets, D forms with d. Residues, ends and D or L forms follow the SMILES beside them. Groups on a side chain read outwards from the residue. *: point of attachment. C20 diacid = O=C(O)CCCCCCCCCCCCCCCCCCC(=O)*; C18 diacid = O=C(O)CCCCCCCCCCCCCCCCC(=O)*; γGlu = O=C(O)[C@H](CCC(=O)[*:2])N[*:1]; αMeF = C[C@](N)(Cc1ccccc1)C(=O)O; AEEA = NCCOCCOCC(=O)O; Aib = CC(C)(N)C(=O)O

Sequence of human GLP-1 receptor (hGLP-1R) (P43220 24-463): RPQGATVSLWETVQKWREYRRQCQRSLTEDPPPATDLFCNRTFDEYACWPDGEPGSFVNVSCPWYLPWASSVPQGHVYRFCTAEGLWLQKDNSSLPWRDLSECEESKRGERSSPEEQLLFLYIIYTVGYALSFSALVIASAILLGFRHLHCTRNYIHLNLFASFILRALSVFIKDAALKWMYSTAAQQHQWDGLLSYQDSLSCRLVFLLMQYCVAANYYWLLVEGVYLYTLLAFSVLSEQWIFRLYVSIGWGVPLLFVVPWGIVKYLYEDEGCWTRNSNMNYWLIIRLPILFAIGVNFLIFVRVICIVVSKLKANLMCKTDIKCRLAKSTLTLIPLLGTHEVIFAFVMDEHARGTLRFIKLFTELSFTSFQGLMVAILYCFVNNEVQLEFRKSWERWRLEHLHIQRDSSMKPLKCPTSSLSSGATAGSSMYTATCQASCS
Sequence of human glucagon receptor (hGCGR) (P47871 26-477): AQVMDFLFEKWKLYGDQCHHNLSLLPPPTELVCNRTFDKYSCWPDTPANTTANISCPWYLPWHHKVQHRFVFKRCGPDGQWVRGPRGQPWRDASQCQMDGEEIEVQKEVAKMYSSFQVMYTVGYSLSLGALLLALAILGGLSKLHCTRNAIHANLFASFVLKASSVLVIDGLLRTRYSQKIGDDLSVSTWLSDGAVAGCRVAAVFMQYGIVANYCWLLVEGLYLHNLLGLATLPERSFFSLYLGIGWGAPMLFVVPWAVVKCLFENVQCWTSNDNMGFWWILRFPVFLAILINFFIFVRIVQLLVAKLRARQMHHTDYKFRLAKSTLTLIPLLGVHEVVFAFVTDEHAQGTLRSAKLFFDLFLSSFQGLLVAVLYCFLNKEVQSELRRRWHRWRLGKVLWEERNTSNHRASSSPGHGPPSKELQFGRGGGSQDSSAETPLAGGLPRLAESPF

Regarding `CC(C)C[C@H](NC(=O)[C@H](CC(=O)O)NC(=O)[C@H](CC(C)C)NC(=O)[C@](C)(Cc1ccccc1)NC(=O)[C@H](CCCCN)NC(=O)[C@H](CO)NC(=O)[C@@H](NC(=O)[C@H](CC(=O)O)NC(=O)[C@H](CO)NC(=O)[C@@H](NC(=O)[C@H](Cc1ccccc1)NC(=O)[C@@H](NC(=O)CNC(=O)[C@H](CCC(N)=O)NC(=O)C(C)(C)NC(=O)[C@@H](N)Cc1c[nH]cn1)[C@@H](C)O)[C@@H](C)O)C(C)C)C(=O)N[C@@H](CCCCNC(=O)COCCOCCNC(=O)COCCOCCNC(=O)CC[C@H](NC(=O)CCCCCCCCCCCCCCCCCCC(=O)O)C(=O)O)C(=O)N[C@@H](CCCNC(=N)N)C(=O)N[C@@H](C)C(=O)N[C@@H](CCC(N)=O)C(=O)N[C@@H](CC(=O)O)C(=O)N[C@@H](Cc1ccccc1)C(=O)N[C@H](C(=O)N[C@@H](CCCNC(=N)N)C(=O)N[C@@H](Cc1c[nH]c2ccccc12)C(=O)N[C@@H](CC(C)C)C(=O)N[C@@H](CC(C)C)C(=O)NC(C)(C)C(=O)N[C@@H](CCC(=O)O)C(=O)O)C(C)C` [Peptide 486], the values for the EC50 in assay [1] (setting [3]) and in assay [2] (setting [3]) were 0.166 nM and 0.42 nM, respectively. Besides, the “% Relative Potency Ratio” value in assay [2] (Table 6) is 0.8.
With `CC[C@H](C)[C@H](NC(=O)C(C)(C)NC(=O)[C@H](CCC(N)=O)NC(=O)[C@@H](NC(=O)[C@](C)(Cc1ccccc1)NC(=O)[C@H](CC(=O)O)NC(=O)[C@H](CCCCNC(=O)COCCOCCNC(=O)CC[C@H](NC(=O)COCCOCCNC(=O)CC[C@H](NC(=O)CCCCCCCCCCCCCCCCC(=O)O)C(=O)O)C(=O)O)NC(=O)[C@H](C)NC(=O)[C@H](C)NC(=O)[C@H](CCCNC(=N)N)NC(=O)[C@H](CO)NC(=O)[C@H](CC(=O)O)NC(=O)[C@H](CC(C)C)NC(=O)[C@](C)(Cc1ccccc1)NC(=O)[C@H](CCCCN)NC(=O)[C@H](CO)NC(=O)[C@@H](NC(=O)[C@H](CC(=O)O)NC(=O)[C@H](CO)NC(=O)[C@@H](NC(=O)[C@](C)(Cc1ccccc1)NC(=O)[C@H](CO)NC(=O)CNC(=O)[C@H](Cc1c[nH]cn1)NC(=O)C(C)(C)NC(=O)[C@@H](N)Cc1c[nH]cn1)[C@@H](C)O)C(C)C)C(C)C)C(=O)N[C@@H](C)C(=O)N[C@@H](CC(N)=O)C(=O)N[C@H](C(N)=O)[C@@H](C)O` [Peptide 260] (H-H[Aib]HGS[αMeF]TSDVSK[αMeF]LDSRAAK([AEEA-γGlu-AEEA-γGlu-C18 diacid])D[αMeF]VQ[Aib]IANT-NH2), the EC50 in assay [1] (setting [4]) stood at 0.0769 nM; in assay [2] (setting [4]) it was 0.0331 nM. In assay [2] (Table 7), the “% Relative Potency Ratio” value was 4.6.
For `CC[C@H](C)[C@H](NC(=O)[C@H](Cc1c[nH]c2ccccc12)NC(=O)[C@H](CCC(N)=O)NC(=O)[C@@H](NC(=O)[C@H](Cc1ccccc1)NC(=O)[C@H](CC(=O)O)NC(=O)C(C)(C)NC(=O)[C@H](C)NC(=O)[C@H](CCCNC(=N)N)NC(=O)[C@H](CCCCNC(=O)CC[C@H](NC(=O)CCCCCCCCCCCCCCCCC(=O)O)C(=O)O)NC(=O)[C@H](CO)NC(=O)[C@H](CC(=O)O)NC(=O)[C@H](CC(C)C)NC(=O)[C@](C)(Cc1ccccc1)NC(=O)[C@H](CCCCN)NC(=O)[C@H](CO)NC(=O)[C@@H](NC(=O)[C@H](CC(=O)O)NC(=O)[C@H](CO)NC(=O)[C@@H](NC(=O)[C@H](Cc1ccccc1)NC(=O)[C@@H](NC(=O)CNC(=O)[C@H](CCC(N)=O)NC(=O)C(C)(C)NC(=O)[C@@H](N)Cc1c[nH]cn1)[C@@H](C)O)[C@@H](C)O)C(C)C)C(C)C)C(=O)N[C@@H](C)C(=O)N[C@@H](CC(N)=O)C(=O)N[C@H](C(N)=O)[C@@H](C)O` [Peptide 32] (H-H[Aib]QGTFTSDVSK[αMeF]LDSK([γGlu-C18 diacid])RA[Aib]DFVQWIANT-NH2; N-terminus assumed), the EC50 in assay [1] (setting [3]) turned out to be 0.24 nM; in assay [2] (setting [3]), 0.013 nM. In assay [2] (Table 6), the “% Relative Potency Ratio” value was 36.7.
Regarding `CC[C@H](C)[C@H](NC(=O)C(C)(C)NC(=O)[C@H](CCC(N)=O)NC(=O)[C@@H](NC(=O)[C@](C)(Cc1ccccc1)NC(=O)[C@H](CC(=O)O)NC(=O)[C@H](CCCCNC(=O)COCCOCCNC(=O)CCCCCCCCCCCCCCCCCCC(=O)O)NC(=O)[C@H](C)NC(=O)[C@H](C)NC(=O)[C@H](CCCNC(=N)N)NC(=O)[C@H](CO)NC(=O)[C@H](CC(=O)O)NC(=O)[C@H](CC(C)C)NC(=O)[C@](C)(Cc1ccccc1)NC(=O)[C@H](CCCCN)NC(=O)[C@H](CO)NC(=O)[C@@H](NC(=O)[C@H](CC(=O)O)NC(=O)[C@H](CO)NC(=O)[C@@H](NC(=O)[C@](C)(Cc1ccccc1)NC(=O)[C@H](CO)NC(=O)CNC(=O)[C@H](Cc1c[nH]cn1)NC(=O)C(C)(C)NC(=O)[C@@H](N)Cc1c[nH]cn1)[C@@H](C)O)C(C)C)C(C)C)C(=O)N[C@@H](C)C(=O)N[C@@H](CC(N)=O)C(=O)N[C@H](C(N)=O)[C@@H](C)O` [Peptide 278] (H-H[Aib]HGS[αMeF]TSDVSK[αMeF]LDSRAAK([AEEA-C20 diacid])D[αMeF]VQ[Aib]IANT-NH2), the values for the EC50 in assay [1] (setting [4]) and in assay [2] (setting [4]) were 0.0835 nM and 0.0789 nM, respectively. In addition, the “% Relative Potency Ratio” value in assay [2] (Table 7) is listed as 2.1.
On to `CC(C)C[C@H](NC(=O)[C@H](Cc1c[nH]c2ccccc12)NC(=O)[C@H](CCCNC(=N)N)NC(=O)[C@@H](NC(=O)[C@H](Cc1ccccc1)NC(=O)[C@H](CC(=O)O)NC(=O)[C@H](CCC(N)=O)NC(=O)[C@H](C)NC(=O)[C@H](CCCNC(=N)N)NC(=O)[C@H](CCCCNC(=O)COCCOCCNC(=O)COCCOCCNC(=O)CC[C@H](NC(=O)CCCCCCCCCCCCCCCCCCC(=O)O)C(=O)O)NC(=O)[C@H](CCCNC(=N)N)NC(=O)[C@H](CC(=O)O)NC(=O)[C@H](CC(C)C)NC(=O)[C@](C)(Cc1ccccc1)NC(=O)[C@H](CCCCN)NC(=O)[C@H](CO)NC(=O)[C@@H](NC(=O)[C@H](CC(=O)O)NC(=O)[C@H](CO)NC(=O)[C@@H](NC(=O)[C@H](Cc1ccccc1)NC(=O)[C@@H](NC(=O)CNC(=O)[C@H](CCC(N)=O)NC(=O)C(C)(C)NC(=O)[C@@H](N)Cc1c[nH]cn1)[C@@H](C)O)[C@@H](C)O)C(C)C)C(C)C)C(=O)N[C@@H](CC(C)C)C(=O)NC(C)(C)C(=O)N[C@@H](CCC(=O)O)C(N)=O` [Peptide 456] (H-H[Aib]QGTFTSDVSK[αMeF]LDRK([AEEA-AEEA-γGlu-C20 diacid])RAQDFVRWLL[Aib]E-NH2; N-terminus assumed), for which the EC50 turned out to be 0.0803 nM in assay [1] (setting [3]) and 0.133 nM in assay [2] (setting [3]). Further, the “% Relative Potency Ratio” value in assay [2] (Table 6) was determined as 1.2.
`CC(C)C[C@H](NC(=O)[C@H](Cc1c[nH]c2ccccc12)NC(=O)[C@H](CCCNC(=N)N)NC(=O)[C@@H](NC(=O)[C@H](Cc1ccccc1)NC(=O)[C@H](CC(=O)O)NC(=O)[C@H](CCC(N)=O)NC(=O)[C@H](C)NC(=O)[C@H](CCCNC(=N)N)NC(=O)[C@H](CCCCNC(=O)COCCOCCNC(=O)COCCOCCNC(=O)CC[C@H](NC(=O)CC[C@H](NC(=O)CCCCCCCCCCCCCCCCC(=O)O)C(=O)O)C(=O)O)NC(=O)[C@H](CCCNC(=N)N)NC(=O)[C@H](CC(=O)O)NC(=O)[C@H](CC(C)C)NC(=O)[C@](C)(Cc1ccccc1)NC(=O)[C@H](CCCCN)NC(=O)[C@H](CO)NC(=O)[C@@H](NC(=O)[C@H](CC(=O)O)NC(=O)[C@H](CO)NC(=O)[C@@H](NC(=O)[C@H](Cc1ccccc1)NC(=O)[C@@H](NC(=O)CNC(=O)[C@H](CCC(N)=O)NC(=O)C(C)(C)NC(=O)[C@@H](N)Cc1c[nH]cn1)[C@@H](C)O)[C@@H](C)O)C(C)C)C(C)C)C(=O)N[C@H](C(=O)NC(C)(C)C(=O)N[C@@H](CCC(=O)O)C(N)=O)C(C)C` [Peptide 446] (H-H[Aib]QGTFTSDVSK[αMeF]LDRK([AEEA-AEEA-γGlu-γGlu-C18 diacid])RAQDFVRWLV[Aib]E-NH2; N-terminus assumed): the EC50 was 0.366 nM in assay [1] (setting [3]) and 0.0329 nM in assay [2] (setting [3]). In assay [2] (Table 6), the “% Relative Potency Ratio” value is listed as 22.0.
In the case of `CC(C)C[C@H](NC(=O)[C@H](Cc1c[nH]c2ccccc12)NC(=O)[C@H](CCCNC(=N)N)NC(=O)[C@@H](NC(=O)[C@H](Cc1ccccc1)NC(=O)[C@H](CC(=O)O)NC(=O)[C@H](CCC(N)=O)NC(=O)[C@H](C)NC(=O)[C@H](CCCNC(=N)N)NC(=O)[C@H](CCCCNC(=O)COCCOCCNC(=O)COCCOCCNC(=O)CC[C@H](NC(=O)CCCCCCCCCCCCCCCCC(=O)O)C(=O)O)NC(=O)[C@H](CO)NC(=O)[C@H](CC(=O)O)NC(=O)[C@H](CC(C)C)NC(=O)[C@](C)(Cc1ccccc1)NC(=O)[C@H](CCCCN)NC(=O)[C@H](CO)NC(=O)[C@@H](NC(=O)[C@H](CC(=O)O)NC(=O)[C@H](CO)NC(=O)[C@@H](NC(=O)[C@H](Cc1ccccc1)NC(=O)[C@@H](NC(=O)CNC(=O)[C@H](CCC(N)=O)NC(=O)C(C)(C)NC(=O)[C@@H](N)Cc1c[nH]cn1)[C@@H](C)O)[C@@H](C)O)C(C)C)C(C)C)C(=O)N[C@H](C(=O)NC(C)(C)C(=O)N[C@H](C(=O)N[C@@H](CCC(=O)O)C(=O)O)[C@@H](C)O)C(C)C` [Peptide 165] (H-H[Aib]QGTFTSDVSK[αMeF]LDSK([AEEA-AEEA-γGlu-C18 diacid])RAQDFVRWLV[Aib]TE-OH; N-terminus assumed), the results for the EC50 in assay [1] (setting [3]) and in assay [2] (setting [3]) were 1.03 nM and 0.0509 nM, respectively. Moreover, in assay [2] (Table 6), the “% Relative Potency Ratio” value worked out at 40.0.
